# What was measured:
# [1] = tested on: LPA-induced histamine release; test: LPA-induced histamine release test in mouse; assay type: in vivo; details: male CD1 mice; oral dose of 10 mg/kg; LPA 300 μg/mouse via tail vein 4 hours after administration; blood 2 minutes after LPA; read-out: efficacy rate (rate of individuals which showed the inhibition rate of 80% or more of plasma histamine)
# Method: LPA-Induced Histamine Release Test in Mouse
# LPA-induced histamine release test in mouse was carried out according to a method by Swaney et al. (The Journal of Pharmacology and Experimental Therapeutics, 336 (2011), pages 693-700). The test compound was suspended in 0.5% methylcellulose solution (133-14255, Wako), and orally administered to male CD1 mice (body weight: 30 to 40 g, supplied by Charles River Laboratories Japan) at a dose of 10 mL/kg. 4 hours after administration, LPA (857130P, Avanti) dissolved in a 0.1% BSA-containing PBS was administered via the tail vein (300 μg/mouse). Immediately, the mouse was anesthetized with isoflurane, and blood was collected via a vein 2 minutes after the administration of LPA. The blood was put into a test tube containing EDTA, and centrifuged at 4° C., 2,000×g, for 10 minutes to obtain the plasma.
# The histamine concentration in the plasma was measured by EIA kit (62HTMPEB, Cisbio Bioassays).
# [2] = tested on: A2058 human melanoma cells; test: Cell migration test (LPA-induced, Chemo-Tx); assay type: cell-based; details: LPA 100 nM, 3 hours, read-out: IC50: concentration of the test compound which inhibits the cell migration activity of LPA by 50%
# Method: The cell migration test was carried out using Chemo-Tx (registered trademark) (116-8, Neuro Probe). A2058 human melanoma cells (obtained from European Collection of Cell Culture) were cultured in a serum-free EMEM medium for 24 hours, and then re-suspended in a 0.1% BSA-containing DMEM medium to obtain a cell suspension. The test compound dissolved in DMSO in various concentration was each added to the cell suspension, and the suspension was cultured at 37° C. for 15 minutes (the final DMSO concentration of 0.5%). LPA dissolved in a 0.1% BSA-containing DMEM medium (the final concentration of 100 nM) was added to Chemo-Tx 96 well plate, and a Chemo-Tx filter which had been coated with 0.001% Fibronectin on the both surfaces was put on the plate. The suspension of cultured cells (25,000 cells) was added onto the upper surface of the filter and further cultured at 37° C. for 3 hours, and the cells on the upper surface of the filter were removed. After the filter was removed and dried, the cells which had migrated to the lower surface of the filter were stained using Diff-Quik stain (16920, Sysmex). The absorbance of the filter (570 nm) was measured and the concentration of the test compound which inhibits the cell migration activity of LPA by 50%, (1050) was determined by non-linear regression analysis using EXSAS (version 7.6.0, Arm Systex).
SMILES,responders at 10 mg/kg [1] [%],IC50 [2] [nM]
"Cc1cscc1[C@@H](C)OC(=O)Nc1cc(Cl)sc1-c1ccc(-c2ccc(C3(C(=O)O)CC3)cc2)cc1 [I-606, (R)-1-{4′-[5-Chloro-3-({[1-(4-methylthiophen-3-yl)ethoxy]carbonyl}amino)thiophen-2-yl]-[1,1′-biphenyl]-4-yl}cyclopropanecarboxylic acid]",≥ 50,≤ 200
"C[C@@H](OC(=O)Nc1cc(Cl)sc1-c1ccc(-c2ccc(C3(C(=O)O)CC3)cc2)cc1)c1ccsc1 [I-596, (R)-1-{4′-[5-Chloro-3-({[1-(thiophen-3-yl)ethoxy]carbonyl}amino)thiophen-2-yl]-[1,1′-biphenyl]-4-yl}cyclopropanecarboxylic acid]",≥ 50,≤ 200
"COc1cc(-c2sc(F)cc2NC(=O)O[C@H](C)c2ccccc2Cl)ccc1-c1ccc(C2(C(=O)O)CC2)cc1 [I-442, (R)-1-{4′-[3-({[1-(2-Chlorophenyl)ethoxy]carbonyl}amino)-5-fluorothiophen-2-yl]-2′-methoxy-[1,1′-biphenyl]-4-yl}cyclopropanecarboxylic acid]",≥ 50,≤ 200
"COc1cc(-c2sc(Cl)cc2NC(=O)O[C@H](C)c2ccccc2C)ccc1-c1ccc(C2(C(=O)O)CC2)cc1 [I-374, (R)-1-{4′-[5-Chloro-3-({[1-(o-tolyl)ethoxy]carbonyl}amino)thiophen-2-yl]-2′-methoxy-[1,1′-biphenyl]-4-yl}cyclopropanecarboxylic acid]",≥ 50,≤ 200
"COc1cc(-c2sc(Cl)cc2NC(=O)O[C@H](C)c2ccc(Cl)cc2)ccc1-c1ccc(C2(C(=O)O)CC2)cc1 [I-370, (R)-1-{4′-[5-Chloro-3-({[1-(4-chlorophenyl)ethoxy]carbonyl}amino)thiophen-2-yl]-2′-methoxy-[1,1′-biphenyl]-4-yl}cyclopropanecarboxylic acid]",≥ 50,≤ 200
"COc1cc(-c2sc(Cl)cc2NC(=O)O[C@H](C)c2ccccc2Cl)ccc1-c1ccc(C2(C(=O)O)CC2)cc1 [I-366, (R)-1-{4′-[5-Chloro-3-({[1-(2-chlorophenyl)ethoxy]carbonyl}amino)thiophen-2-yl]-2′-methoxy-[1,1′-biphenyl]-4-yl}cyclopropanecarboxylic acid]",≥ 50,≤ 200
"Cc1cscc1[C@@H](C)OC(=O)Nc1cc(F)sc1-c1ccc(-c2ccc(C3(C(=O)O)CC3)cc2)cc1 [I-650, (R)-1-{4′-[5-Fluoro-3-({[1-(4-methylthiophen-3-yl)ethoxy]carbonyl}amino)thiophen-2-yl]-[1,1′-biphenyl]-4-yl}cyclopropanecarboxylic acid]",≥ 50,≤ 200
"COc1cc(-c2sc(F)cc2NC(=O)O[C@H](C)c2cccc(F)c2)ccc1-c1ccc(C2(C(=O)O)CC2)cc1 [I-428, (R)-1-{4′-[5-Fluoro-3-({[1-(3-fluorophenyl)ethoxy]carbonyl}amino)thiophen-2-yl]-2′-methoxy-[1,1′-biphenyl]-4-yl}cyclopropanecarboxylic acid]",≥ 50,≤ 200
"C[C@@H](OC(=O)Nc1cc(Cl)sc1-c1ccc(-c2ccc(C3(C(=O)O)CC3)cc2)nc1)c1ccccc1 [I-196, (R)-1-{4-[5(5-Chloro-3-{[(1-phenylethoxy)carbonyl]amino}thiophen-2-yl)pyridine-2-yl]phenyl}cyclopropanecarboxylic acid]",≥ 50,≤ 200
"COc1cc(-c2sc(F)cc2NC(=O)O[C@H](C)c2ccc(F)cc2)ccc1-c1ccc(C2(C(=O)O)CC2)cc1 [I-432, (R)-1-{4′-[5-Fluoro-3-({[1-(4-fluorophenyl)ethoxy]carbonyl}amino)thiophen-2-yl]-2′-methoxy-[1,1′-biphenyl]-4-yl}cyclopropanecarboxylic acid]",≥ 50,≤ 200
"COc1cc(-c2sc(Cl)cc2NC(=O)O[C@H](C)c2cccc(F)c2)ccc1-c1ccc(C2(C(=O)O)CC2)cc1 [I-358, (R)-1-{4′-[5-Chloro-3-({[1-(3-fluorophenyl)ethoxy]carbonyl}amino)thiophen-2-yl]-2′-methoxy-[1,1′-biphenyl]-4-yl}cyclopropanecarboxylic acid]",≥ 50,≤ 200
"COc1cc(-c2sc(F)cc2NC(=O)O[C@H](C)c2ccccc2F)ccc1-c1ccc(C2(C(=O)O)CC2)cc1 [I-424, (R)-1-{4′-[5-Fluoro-3-({[1-(2-fluorophenyl)ethoxy]carbonyl}amino)thiophen-2-yl]-2′-methoxy-[1,1′-biphenyl]-4-yl}cyclopropanecarboxylic acid]",≥ 50,≤ 200
"CC(OC(=O)Nc1cc(F)sc1-c1ccc(-c2ccc(C3(C(=O)O)CC3)cc2)cc1)c1ccsc1 (racemic) [I-639, (RS)-1-{4′-[5-Fluoro-3-({[1-(thiophen-3-yl)ethoxy]carbonyl}amino)thiophen-2-yl]-[1,1′-biphenyl]-4-yl}cyclopropanecarboxylic acid]",≥ 50,≤ 200
"COc1cc(-c2sc(Cl)cc2NC(=O)O[C@H](C)c2ccsc2)ccc1-c1ccc(C2(C(=O)O)CC2)cc1 [I-780, (R)-1-{4′-[5-Chloro-3-({[1-(thiophen-3-yl)ethoxy]carbonyl}amino)thiophen-2-yl]-2′-methoxy-[1,1′-biphenyl]-4-yl}cyclopropanecarboxylic acid]",≥ 50,≤ 200
"COc1cc(-c2sc(Cl)cc2NC(=O)O[C@H](C)c2ccccc2F)ccc1-c1ccc(C2(C(=O)O)CC2)cc1 [I-354, (R)-1-{4′-[5-Chloro-3-({[1-(2-fluorophenyl)ethoxy]carbonyl}amino)thiophen-2-yl]-2′-methoxy-[1,1′-biphenyl]-4-yl}cyclopropanecarboxylic acid]",≥ 50,≤ 200
"Cc1cscc1C(C)OC(=O)Nc1cc(F)sc1-c1ccc(-c2ccc(C3(C(=O)O)CC3)cc2)cc1 (racemic) [I-649, (RS)-1-{4′-[5-Fluoro-3-({[1-(4-methylthiophen-3-yl)ethoxy]carbonyl}amino)thiophen-2-yl]-[1,1′-biphenyl]-4-yl}cyclopropanecarboxylic acid]",≥ 50,≤ 200
"COc1cc(-c2sc(Cl)cc2NC(=O)O[C@H](C)c2ccc(F)cc2F)ccc1-c1ccc(C2(C(=O)O)CC2)cc1 [I-378, (R)-1-{4′-[5-Chloro-3-({[1-(2,4-difluorophenyl)ethoxy]carbonyl}amino)thiophen-2-yl]-2′-methoxy-[1,1′-biphenyl]-4-yl}cyclopropanecarboxylic acid]",≥ 50,≤ 200
"Cc1ccccc1[C@@H](C)OC(=O)Nc1cc(F)sc1-c1ccc(-c2ccc(C3(C(=O)O)CC3)cc2)cc1 [I-136, (R)-1-{4′-[5-Fluoro-3-({[1-(o-tolyl)ethoxy]carbonyl}amino)thiophen-2-yl]-[1,1′-biphenyl]-4-yl}cyclopropanecarboxylic acid]",≥ 50,≤ 200
COc1cc(-c2sc(F)cc2NC(=O)O[C@H](C)c2ccccc2)ccc1-c1ccc(C2(C(=O)O)CC2)cc1 [I-420],≥ 50,≤ 200
CC(OC(=O)Nc1cc(Cl)sc1-c1ccc(-c2ccc(C3(C(=O)O)CC3)cc2)cc1)c1ccsn1 (racemic) [I-621],–,≤ 200

# Reference: patent US10597375B2, “Halogen-substituted heterocyclic compound” (UBE INDUSTRIES, LTD., priority 2012, dated 2020)
